From patent US5795954A, “Factor VIIa inhibitors from Kunitz domain proteins” (Genentech, Inc., priority 1994, dated 1998)
Where two headings read alike, the source gives them in different places. Blank lines part the entries; values can stand above or below the substance they belong to. Positions of bridges follow the written chain, without caps; N, C: chain ends. No end group written: not given here.

Columns and labels:
Assay type in all cases: biochemical
[1] = tested on: normal human plasma, clotting initiated by TF membranes; assay: tissue factor initiated prothrombin time (PT) assay
Procedure: FIG. 6. Prolongation of clotting time in the PT assay in normal human plasma. […] The uninhibited clotting time was 48 sec.
Clotting times were performed using the ACL 300 Research Coagulation Analyzer. For the prothrombin time (PT) assays, the incubation time was set at 120 sec and acquisition time at 120 to 600 sec depending on the expected outcome of the assay. Membranes from 293 cells expressing full length TF (Paborsky, L. R. et al., Biochemistry 28: 8072-8077 [1989]) were premixed with CaCl2. The sample (plasma and inhibitor) and reagent (CaCl2 /TF) were automatically mixed together after a 2 min incubation at 37° C. The clotting time was determined by optical assessment. The total incubation time of inhibitor with plasma before addition of CaCl2 /TF was ca. 5 min. Final concentrations were 2 to 20 μM inhibitor, 3.7 nM TF (0.9 μg/ml by protein content), 22.5 mM CaCl2, and 50% plasma in a total volume of 160 μL.

[2] = tested on: normal human plasma, clotting initiated by ellagic acid; assay: activated partial thromboplastin time (APTT) assay; details: ca. 7 μM inhibitor
Procedure: FIG. 7. Prolongation of clotting time in the APTT assay in normal human plasma. […] The uninhibited clotting time was 31 sec.
For the activated partial thromboplastin time (APTT) assays, the activation time was set at 120 sec and acquisition time at 300 to 600 sec depending on the expected outcome of the assay. Citrated normal human plasma and inhibitor were incubated together. The sample (plasma and inhibitor) and activator (Instrumentation Laboratories Ellagic acid/Phospholipid mix Test Reagent) were automatically pipetted and incubated together for 2 min at 37° C., then CaCl2 was added and clotting time determined by means of optical assessment. The total incubation time of inhibitor with plasma was ca. 3 min before addition of activator, and 5 min before addition of CaCl2.

TF.cndot.FVIIa = target: T1, TF.cndot.FVIIa (Homo sapiens, UniProt P08709); assay: TF·FVIIa enzyme inhibition assay, apparent equilibrium dissociation constant (Ki*)
T1 construct: is generated by proteolysis of a single peptide bond from its zymogen Factor VII (FVII); purchased Haematologic Technologies Inc. (Essex Jct., Vt.); host or cells: TF1-243 made in house in E. coli
T1 sequence (P08709 213-466 limits assumed): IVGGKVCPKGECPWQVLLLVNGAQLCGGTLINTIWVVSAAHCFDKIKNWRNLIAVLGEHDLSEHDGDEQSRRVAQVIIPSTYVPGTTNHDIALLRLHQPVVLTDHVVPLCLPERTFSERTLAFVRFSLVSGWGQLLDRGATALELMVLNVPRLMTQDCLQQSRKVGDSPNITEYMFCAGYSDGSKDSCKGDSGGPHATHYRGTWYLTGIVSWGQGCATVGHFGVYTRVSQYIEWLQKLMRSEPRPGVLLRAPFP
T1 sequence (P08709 61-212 limits assumed): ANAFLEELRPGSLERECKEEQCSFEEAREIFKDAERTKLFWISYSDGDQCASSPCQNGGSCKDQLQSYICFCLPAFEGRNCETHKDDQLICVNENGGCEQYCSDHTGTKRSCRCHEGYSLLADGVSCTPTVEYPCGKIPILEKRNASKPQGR
T1 sequence (P13726 33-275 partner limits assumed): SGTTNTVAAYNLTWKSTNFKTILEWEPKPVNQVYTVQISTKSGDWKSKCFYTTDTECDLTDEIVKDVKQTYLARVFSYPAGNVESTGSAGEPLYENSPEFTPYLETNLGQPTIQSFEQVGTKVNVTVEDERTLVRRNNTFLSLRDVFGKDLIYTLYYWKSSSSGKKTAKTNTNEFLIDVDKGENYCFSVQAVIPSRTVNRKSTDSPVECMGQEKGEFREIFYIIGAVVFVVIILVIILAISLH
Procedure: Aliquots (25 μL) from each well of a microtiter plate containing the serially diluted inhibitors were transferred into new microtiter plates, each containing a different protease (100 μL) in the appropriate buffer. The proteases tested (protease concentration, buffer, substrate) were FVIIa (10 nM, Buffer A, 0.7 mM S2366), FXIa (1.0 nM, Buffer B containing 1 mg/ml BSA, 0.7 mM S2366), plasma kallikrein (3.5 nM, Buffer B, 0.5 mM S2302), and plasmin (15 nM, Buffer B, 1 mM S2251).

FXa = target: T2, FXa (Homo sapiens, UniProt P00742); assay: FXa enzyme inhibition assay (Ki*)
T2 construct: purchased Haematologic Technologies Inc. (Essex Jct., Vt.)
T2 sequence (P00742 235-488 limits assumed): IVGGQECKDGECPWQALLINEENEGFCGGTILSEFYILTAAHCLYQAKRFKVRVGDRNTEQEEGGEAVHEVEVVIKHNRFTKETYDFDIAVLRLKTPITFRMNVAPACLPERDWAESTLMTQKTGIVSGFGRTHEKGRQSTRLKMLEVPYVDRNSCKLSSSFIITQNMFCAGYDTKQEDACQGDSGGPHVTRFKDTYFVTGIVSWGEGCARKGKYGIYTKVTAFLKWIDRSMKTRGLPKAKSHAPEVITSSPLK
T2 sequence (P00742 41-179 limits assumed): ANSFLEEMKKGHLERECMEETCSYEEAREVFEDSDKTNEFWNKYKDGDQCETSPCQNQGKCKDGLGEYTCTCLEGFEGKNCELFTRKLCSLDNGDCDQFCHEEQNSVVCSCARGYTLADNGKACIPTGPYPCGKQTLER
Procedure: (§1) To aliquots of serial diluted inhibitor, either activated protein C, thrombin, FXa, FXIa, FXIIa, plasma kallikrein or plasmin were added. After incubation and addition of the appropriate substrate, plots of fractional activity versus inhibitor concentration were generated as described in Example 3.
(§2) After incubation of the substrate/inhibitor mixes at room temperature for 1-3 h, the appropriate substrate (20 μL) was added, and the absorbance at 405 nm was monitored. Controls lacking inhibitor and enzyme were assayed to measure the uninhibited and substrate hydrolysis rates, respectively. Plots of the fractional rate versus inhibitor concentration were fit by nonlinear regression analysis to equation 1 and apparent equilibrium dissociation constants (Ki *) were determined. […] The concentrations of activated protein C, thrombin and plasmin were based upon those of the supplier.

thrombin = thrombin (Homo sapiens, UniProt P00734); assay: thrombin enzyme inhibition assay (Ki*)
Procedure: as §1, §2

FXIIa = target: T3, FXIIa (Homo sapiens, UniProt P00748); assay: FXIIa enzyme inhibition assay (Ki*)
T3 construct: purchased Enzyme Research Laboratories, Inc. (South Bend, Ind.)
T3 sequence (P00748 373-615 limits assumed): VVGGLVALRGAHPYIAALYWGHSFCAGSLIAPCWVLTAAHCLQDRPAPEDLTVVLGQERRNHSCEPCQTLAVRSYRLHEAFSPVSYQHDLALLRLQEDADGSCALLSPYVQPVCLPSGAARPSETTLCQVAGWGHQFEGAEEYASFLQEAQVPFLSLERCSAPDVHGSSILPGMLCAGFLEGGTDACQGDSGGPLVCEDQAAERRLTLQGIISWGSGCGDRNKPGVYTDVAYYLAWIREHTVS
T3 sequence (P00748 20-372 limits assumed): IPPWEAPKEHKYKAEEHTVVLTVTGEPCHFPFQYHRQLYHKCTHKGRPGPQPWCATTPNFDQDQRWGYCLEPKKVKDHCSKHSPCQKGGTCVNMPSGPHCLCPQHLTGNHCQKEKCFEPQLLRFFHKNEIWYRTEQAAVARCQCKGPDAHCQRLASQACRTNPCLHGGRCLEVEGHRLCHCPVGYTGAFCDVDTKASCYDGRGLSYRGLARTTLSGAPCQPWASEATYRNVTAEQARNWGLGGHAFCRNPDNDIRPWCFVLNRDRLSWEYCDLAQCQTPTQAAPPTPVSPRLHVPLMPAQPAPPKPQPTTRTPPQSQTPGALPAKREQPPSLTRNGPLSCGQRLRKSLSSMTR
Procedure: as §1, §2

activated protein C = target: T4, activated protein C (Homo sapiens, UniProt P04070); assay: activated protein C enzyme inhibition assay (Ki*)
T4 construct: purchased Haematologic Technologies Inc. (Essex Jct., Vt.)
T4 sequence (P04070 212-450 limits assumed): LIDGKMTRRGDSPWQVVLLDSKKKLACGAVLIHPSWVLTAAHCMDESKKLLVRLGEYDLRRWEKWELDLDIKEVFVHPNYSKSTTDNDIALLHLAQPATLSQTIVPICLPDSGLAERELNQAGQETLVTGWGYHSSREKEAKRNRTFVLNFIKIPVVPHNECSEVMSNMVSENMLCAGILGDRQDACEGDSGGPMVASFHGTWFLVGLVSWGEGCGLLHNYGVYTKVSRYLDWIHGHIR
T4 sequence (P04070 43-197 limits assumed): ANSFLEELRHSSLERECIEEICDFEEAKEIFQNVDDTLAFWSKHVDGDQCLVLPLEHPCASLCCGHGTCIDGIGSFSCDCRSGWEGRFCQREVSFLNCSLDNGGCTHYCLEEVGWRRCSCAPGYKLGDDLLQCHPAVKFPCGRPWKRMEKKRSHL
Procedure: as §1, §2

[3] = equilibrium conditions, read-out: apparent Ki* with TF.cndot.FVIIa (FIG. 4)

Substance: TF7I-C: APPI Kunitz domain variant (SEQ ID NO: 33) with Thr11Pro, Met17Leu, Ser19Leu and Gly39Tyr compared to wild type APPI
prolongation of clotting time in PT assay ([1]; 10 μM inhibitor, clotting initiated by TF membranes): ~3 fold
prolongation of clotting time in PT assay ([1]; ca. 20 μM inhibitor): 4 fold
prolongation of clotting time in APTT assay [2]: greater than 10 fold

Substance: VREVCSEQAETGPCRAMISRWYFDVTEGKCAPFFYGGCGGNRNNFDTEEYCMAVCGSA (disulfide 5-55, 14-38, 30-51) [APPI]
Ki (TF.cndot.FVIIa; FVIIa 10 nM, TF1-243 50 nM, nonlinear regression, equation 1, read-out: Ki* with TF.cndot.FVIIa (FIG. 5, representative determination)): 300 nM
Ki (TF.cndot.FVIIa; [3]): 301 ± 44 nM
Ki (FXa): > 10000 nM
Ki (thrombin): > 10000 nM
Ki (FXIIa): > 10000 nM
Ki (activated protein C): > 10000 nM

Ki (TF.cndot.FVIIa; [3]): ~600 nM
Substance: first Kunitz domain of TFPI: first Kunitz domain (residues 22-79) of human tissue factor pathway inhibitor (MHSFCAFKADDGPCKAIMKRFFFNIFTRQCEEFIYGGCEGNQNRFESLEECKKMCTRD)
